# According to ChEMBL document CHEMBL4765274, “The development of advanced structural framework as multi-target-directed ligands for the treatment of Alzheimer's disease” (Eur J Med Chem, 2020):
# The source made the active and inactive calls. No cut-off for these calls is given here. Peptide text beside a SMILES is read from it. * marks the point of attachment. Cbz = O=C(OCc1ccccc1)*
# What was measured:
# [1] = Inhibition of Cu2+-induced amyloid beta (1 to 42 residues) (unknown origin) aggregation at 25 uM after 24 hrs by thioflavin-T fluorescence method relative to control
# [2] = test system: Mus musculus; assay: Antialzheimer activity in scopolamine-induced Kunming mouse model of memory impairment assessed as latency time at 5 mg/kg , po by step-down passive avoidance test (reference value: 125.65 sec); type: functional
# [3] = species: Danio rerio; assay: Antialzheimer activity in Alcl3-induced zebra fish AD model assessed as increase in motility at 8 uM relative to control; type: functional
# [4] = Inhibition of self-induced amyloid beta (1 to 42 residues) (unknown origin) aggregation by thioflavin T based fluorescence assay; set-up: species or system Homo sapiens
# [5] = Selectivity index, ratio of IC50 for inhibition of equine serum BChE to IC50 for inhibition of electric eel AChE
# [6] = target: T1, Cholinesterase (Homo sapiens, UniProt P06276); assay: Inhibition of human serum BChE by Ellman's method; type: cell-free
# [7] = Antioxidant activity assessed as trolox equivalent of AAPH radical scavenging activity measured every min for 4 hrs by ORAC-FL assay relative to trolox; type: functional
# [8] = target: Cholinesterase (Equus caballus, UniProt P81908); assay: Inhibition of equine serum BChE by Ellman's method; type: cell-free
# [9] = target: T2, Acetylcholinesterase (Homo sapiens, UniProt P22303); assay: Inhibition of AChE in human erythrocytes by Ellman's method; type: cell-based, Erythrocyte
# [10] = target: Acetylcholinesterase (Electrophorus electricus, UniProt O42275); assay: Inhibition of electric eel AChE by Ellman's method
# [11] = target: T1, Cholinesterase; assay: Inhibition of human serum BChE by Ellman's method relative to control; type: cell-free; set-up: concentration or dose not given beside the values; conditions: concentration not given here
# [12] = test system: HT-22; assay: Inhibition of ubiquitin-proteasome system in mouse HT-22 cells expressing YFP-CLI assessed as increase in GFP level at 0.5 uM after 24 hrs by flow cytometric analysis; type: cell-based
# [13] = test system: HT-22; assay: Inhibition of ubiquitin-proteasome system in mouse HT-22 cells expressing YFP-CLI assessed as increase in GFP level at 0.5 uM after 24 hrs by fluorescence microscopic method; type: cell-based
# [14] = target: Acetylcholinesterase (Electrophorus electricus) (UniProt O42275); assay: Inhibition of electric eel AChE at 25 uM by Ellman's method relative to control
# [15] = target: Cholinesterase (Equus caballus) (UniProt P81908); assay: Inhibition of equine serum BChE at 25 uM by Ellman's method relative to control; type: cell-free
# [16] = target: T2, Acetylcholinesterase; assay: Inhibition of AChE in human erythrocytes at 25 uM by Ellman's method relative to control; type: cell-based; conditions: Erythrocyte
# [17] = target: T1, Cholinesterase; assay: Inhibition of human serum BChE at 25 uM by Ellman's method relative to control; type: cell-free
# [18] = Disaggregation of Cu2+ induced amyloid beta (1 to 42 residues) (unknown origin) aggregation at 25 uM by thioflavin-T fluorescence method relative to control
# [19] = species: Homo sapiens; assay: Inhibition of self-induced amyloid beta (1 to 42 residues) (unknown origin) aggregation at 25 uM by thioflavin T based fluorescence assay relative to control
# [20] = Cytotoxicity against rat PC-12 cells assessed as cell viability at 100 uM after 48 hrs by MTT assay relative to control; type: cell-based; conditions: read-out: Activity
# [21] = test system: PC-12; assay: Neuroprotective activity against H2O2-induced cytotoxicity in rat PC-12 cells assessed as decrease in LDH activity at 1 to 10 uM preincubated for 2 hrs followed by H2O2 addition and measured after 24 hrs by LDH assay; type: functional, cell-based; conditions: dose 1-10 µM, time 26.0 hrs
# [22] = test system: SH-SY5Y; assay: Neuroprotective activity against amyloid beta (1 to 42 residues)-induced cytotoxicity in human SH-SY5Y cells assessed as increase in cell viability at 1 to 10 uM incubated for 48 hrs by MTT assay; type: functional, cell-based; conditions: dose 1-10 µM
# [23] = test system: SH-SY5Y; assay: Cytotoxicity against human SH-SY5Y cells assessed as cell viability up to 100 uM after 48 hrs by MTT assay relative to control; type: cell-based
# [24] = Effective permeability of compound at 100 ug/m by PAMPA-BBB assay; type: ADME; conditions: read-out: Peff
# [25] = test system: PC-12; assay: Cytotoxicity against rat PC-12 cells assessed as reduction in cell viability up to 100 uM after 48 hrs by MTT assay; type: cell-based; conditions: pc-12, 48 h
# [26] = test system: PC-12; assay: Neuroprotective activity against H2O2-induced cytotoxicity in rat PC-12 cells assessed as increase in cell viability preincubated for 2 hrs followed by H2O2 addition and measured after 24 hrs by MTT assay; type: functional, cell-based; conditions: dose 1-10 µM, time 26.0 hrs
# Chain of Acetylcholinesterase (Electrophorus electricus) (O42275 24-633 limits assumed): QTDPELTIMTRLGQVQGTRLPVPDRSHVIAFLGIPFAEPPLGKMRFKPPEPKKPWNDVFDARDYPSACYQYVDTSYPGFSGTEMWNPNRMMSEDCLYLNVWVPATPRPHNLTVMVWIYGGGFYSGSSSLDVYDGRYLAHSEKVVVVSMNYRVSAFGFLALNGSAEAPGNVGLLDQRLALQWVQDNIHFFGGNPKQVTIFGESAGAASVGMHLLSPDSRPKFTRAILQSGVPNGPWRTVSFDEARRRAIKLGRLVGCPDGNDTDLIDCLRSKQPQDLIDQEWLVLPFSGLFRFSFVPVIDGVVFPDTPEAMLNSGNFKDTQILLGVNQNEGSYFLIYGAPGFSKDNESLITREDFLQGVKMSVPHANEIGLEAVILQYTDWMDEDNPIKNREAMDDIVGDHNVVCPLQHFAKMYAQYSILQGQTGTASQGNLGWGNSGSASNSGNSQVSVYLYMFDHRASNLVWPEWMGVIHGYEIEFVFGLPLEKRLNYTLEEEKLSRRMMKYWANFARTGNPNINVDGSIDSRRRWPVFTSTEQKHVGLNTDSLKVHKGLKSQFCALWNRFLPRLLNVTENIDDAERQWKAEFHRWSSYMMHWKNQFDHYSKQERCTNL
# Chain of Cholinesterase (Equus caballus, UniProt P81908) (P81908 whole entry): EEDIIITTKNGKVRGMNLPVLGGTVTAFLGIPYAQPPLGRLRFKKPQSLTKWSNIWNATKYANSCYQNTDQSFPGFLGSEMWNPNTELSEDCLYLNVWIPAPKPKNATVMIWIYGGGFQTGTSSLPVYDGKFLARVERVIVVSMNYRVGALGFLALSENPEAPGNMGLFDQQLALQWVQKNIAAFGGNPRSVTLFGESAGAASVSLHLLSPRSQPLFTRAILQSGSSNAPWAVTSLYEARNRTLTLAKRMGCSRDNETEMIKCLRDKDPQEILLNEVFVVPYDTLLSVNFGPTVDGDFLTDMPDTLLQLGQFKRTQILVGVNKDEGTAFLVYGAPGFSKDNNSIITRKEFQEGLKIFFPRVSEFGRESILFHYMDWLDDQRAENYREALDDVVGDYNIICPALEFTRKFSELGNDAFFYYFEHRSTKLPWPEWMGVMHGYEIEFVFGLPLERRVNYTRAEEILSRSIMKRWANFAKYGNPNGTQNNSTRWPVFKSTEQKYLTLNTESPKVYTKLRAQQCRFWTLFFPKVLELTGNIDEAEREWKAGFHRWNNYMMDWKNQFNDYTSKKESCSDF
# Chain of Cholinesterase (Equus caballus) (P81908 whole entry): as above
# Chain of Acetylcholinesterase (Electrophorus electricus, UniProt O42275) (O42275 whole entry): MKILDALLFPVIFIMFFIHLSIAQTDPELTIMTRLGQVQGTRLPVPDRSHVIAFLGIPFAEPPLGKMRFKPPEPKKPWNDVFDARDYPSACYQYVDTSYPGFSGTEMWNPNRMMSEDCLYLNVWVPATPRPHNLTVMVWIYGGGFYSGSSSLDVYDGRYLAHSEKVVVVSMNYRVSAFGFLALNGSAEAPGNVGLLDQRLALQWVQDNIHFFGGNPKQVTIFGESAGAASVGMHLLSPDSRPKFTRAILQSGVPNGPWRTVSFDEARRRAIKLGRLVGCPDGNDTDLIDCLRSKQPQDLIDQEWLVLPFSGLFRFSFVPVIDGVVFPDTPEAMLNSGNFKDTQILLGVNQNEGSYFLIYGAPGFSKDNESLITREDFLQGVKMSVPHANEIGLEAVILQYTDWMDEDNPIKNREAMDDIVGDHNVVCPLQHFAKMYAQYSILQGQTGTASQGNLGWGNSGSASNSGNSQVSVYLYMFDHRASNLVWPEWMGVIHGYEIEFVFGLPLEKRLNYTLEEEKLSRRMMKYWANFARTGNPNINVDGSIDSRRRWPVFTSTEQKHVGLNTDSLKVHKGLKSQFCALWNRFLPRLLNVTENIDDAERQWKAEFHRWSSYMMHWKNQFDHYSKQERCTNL
# T1 sequence (P06276 whole entry): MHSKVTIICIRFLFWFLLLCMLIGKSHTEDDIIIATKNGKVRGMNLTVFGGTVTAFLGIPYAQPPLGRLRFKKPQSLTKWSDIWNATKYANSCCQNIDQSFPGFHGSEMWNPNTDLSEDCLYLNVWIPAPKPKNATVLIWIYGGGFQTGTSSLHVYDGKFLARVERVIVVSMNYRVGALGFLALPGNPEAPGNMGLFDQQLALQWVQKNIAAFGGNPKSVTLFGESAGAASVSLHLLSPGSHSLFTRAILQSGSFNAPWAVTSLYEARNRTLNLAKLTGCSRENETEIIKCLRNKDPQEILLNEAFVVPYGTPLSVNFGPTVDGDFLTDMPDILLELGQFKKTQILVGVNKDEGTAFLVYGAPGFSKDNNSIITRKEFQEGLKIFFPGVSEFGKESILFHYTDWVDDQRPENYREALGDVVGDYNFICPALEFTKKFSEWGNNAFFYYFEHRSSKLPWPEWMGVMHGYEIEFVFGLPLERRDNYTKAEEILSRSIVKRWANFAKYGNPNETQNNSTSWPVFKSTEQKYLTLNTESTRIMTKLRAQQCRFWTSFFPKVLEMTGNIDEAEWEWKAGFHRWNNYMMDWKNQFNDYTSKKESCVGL
# T2 sequence (P22303 whole entry): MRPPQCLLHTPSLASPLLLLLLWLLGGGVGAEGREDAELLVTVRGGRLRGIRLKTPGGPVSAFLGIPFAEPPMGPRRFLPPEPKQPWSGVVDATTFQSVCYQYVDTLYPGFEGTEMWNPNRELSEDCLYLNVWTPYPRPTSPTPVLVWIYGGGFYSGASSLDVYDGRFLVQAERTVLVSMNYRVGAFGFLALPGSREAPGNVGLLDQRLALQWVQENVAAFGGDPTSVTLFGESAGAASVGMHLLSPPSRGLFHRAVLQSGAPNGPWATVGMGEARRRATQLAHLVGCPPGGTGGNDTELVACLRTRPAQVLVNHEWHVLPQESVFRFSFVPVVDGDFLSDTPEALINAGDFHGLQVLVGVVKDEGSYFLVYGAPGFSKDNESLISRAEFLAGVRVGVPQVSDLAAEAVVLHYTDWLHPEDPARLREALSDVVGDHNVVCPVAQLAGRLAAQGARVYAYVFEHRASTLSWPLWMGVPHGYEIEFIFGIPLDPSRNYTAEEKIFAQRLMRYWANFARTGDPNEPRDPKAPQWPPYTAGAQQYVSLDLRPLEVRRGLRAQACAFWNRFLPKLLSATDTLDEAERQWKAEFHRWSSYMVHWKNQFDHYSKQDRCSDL
SMILES,Ratio IC50 [5],IC50 [6],fold change (FC) [7],IC50 [8],IC50 [9],IC50 [10],further results
COc1cc2c(cc1OC)C(=O)C(CC1CCN(Cc3ccccc3)CC1)C2 (stereo not drawn) [DONEPEZIL],–,–,–,–,–,–,inhibition [1]: inactive; Time [2]: 251.42 s; Activity [3]: 55%; IC50 [4]: Not Active
CCN(CC)CCCCOc1ccc(/C=C/C(=O)c2c(O)cc(OCCCCN(CC)CC)cc2O)cc1,4.9,8.3 µM,0.9,30.8 µM,4.7 µM,6.24 µM,–
O=C1CC(c2ccc(OCCCCN3CCC(Cc4ccccc4)CC3)cc2)Oc2cc(OCCCCN3CCC(Cc4ccccc4)CC3)cc(O)c21 (stereo not drawn),0.93,18.7 µM,0.98,7.5 µM,7.6 µM,8.1 µM,–
O=C(/C=C/c1ccc(OCCCCN2CCCCC2)cc1)c1c(O)cc(OCCCCN2CCCCC2)cc1O,2,3.7 µM,1.1,7.2 µM,5.1 µM,3.52 µM,–
O=c1c(-c2ccc(OCCCCN3CCc4ccccc4C3)cc2)coc2cc(OCCCCN3CCc4ccccc4C3)cc(O)c12,3.9,13.7 µM,1.1,52.6 µM,8.1 µM,13.5 µM,–
O=C1CC(c2ccc(OCCCCN3CCc4ccccc4C3)cc2)Oc2cc(OCCCCN3CCc4ccccc4C3)cc(O)c21 (stereo not drawn),–,20.1 µM,1.2,–,13.2 µM,16.8 µM,inhibition [11]: 8.8%
CC(C)C[C@@H](C=O)NC(=O)[C@H](CC(C)C)NC(=O)[C@H](CC(C)C)NC(=O)OCc1ccccc1 (Cbz-Leu-Leu-Leu-aldehyde),–,–,–,–,–,–,inhibition [12]: Active; inhibition [13]: Active
CCN(CCCCOc1ccc(-c2coc3cc(OCCCCN(CC)Cc4ccccc4)cc(O)c3c2=O)cc1)Cc1ccccc1,–,18.2 µM,1.4,–,2.1 µM,2.3 µM,inhibition [11]: 12%
O=C(C=Cc1ccccc1)c1ccccc1,–,–,2.6,–,–,–,inhibition [14]: < 5%; inhibition [15]: < 5%; inhibition [16]: < 5%; inhibition [17]: < 5%
O=C(/C=C/c1ccc(OCCCCN2CCC(Cc3ccccc3)CC2)cc1)c1c(O)cc(OCCCCN2CCC(Cc3ccccc3)CC2)cc1O,2.8,9.4 µM,1.1,46.1 µM,11.9 µM,16.3 µM,–
COc1cc(/C=C/C(=O)CC(=O)/C=C/c2ccc(O)c(OC)c2)ccc1O,–,–,–,–,–,–,inhibition [1]: 53.6%; Activity [18]: 56.1%; inhibition [19]: 43.7%
CC1c2ccccc2CCN1CCCCOc1ccc(-c2coc3cc(OCCCCN4CCc5ccccc5C4C)cc(O)c3c2=O)cc1 (stereo not drawn),–,12.4 µM,1.3,–,5.3 µM,1.8 µM,inhibition [11]: 19%
O=c1cc(-c2ccc(OCCCCN3CCc4ccccc4C3)cc2)oc2cc(OCCCCN3CCc4ccccc4C3)cc(O)c12,0.96,15.8 µM,1.3,17.5 µM,0.59 µM,18.2 µM,–
CCN(CCCCOc1ccc(/C=C/C(=O)c2c(O)cc(OCCCCN(CC)Cc3ccccc3OC)cc2O)cc1)Cc1ccccc1OC,13.4,5.2 µM,1.3,15.6 µM,1.3 µM,1.16 µM,"viability at 48 h, 100 µM [20]: 55.6%; Activity [21]: Active; IC50 ([4]; read-out: IC50): 3.7 µM; Activity [22]: Active; Activity [23]: Toxic"
O=c1cc(-c2ccc(O)cc2)oc2cc(O)cc(O)c12 [APIGENIN],–,–,6.1,–,–,–,inhibition [14]: < 5%; inhibition [15]: < 5%; inhibition [16]: < 5%; inhibition [17]: < 5%; Papp at 100 ug/m [24]: 15.7 ×10⁻⁶ cm/s
O=C1CC(c2ccc(OCCCCN3CCN(Cc4ccccc4)CC3)cc2)Oc2cc(OCCCCN3CCN(Cc4ccccc4)CC3)cc(O)c21 (stereo not drawn),–,21.4 µM,1.7,–,18.7 µM,11.6 µM,inhibition [11]: 12.2%
O=c1c(-c2ccc(O)cc2)coc2cc(O)cc(O)c12,–,–,5.1,–,–,–,inhibition [15]: < 5%; inhibition [17]: < 5%
CCN(CCCCOc1ccc(C2CC(=O)c3c(O)cc(OCCCCN(CC)Cc4ccccc4OC)cc3O2)cc1)Cc1ccccc1OC (stereo not drawn),4.1,15.6 µM,1.3,21.9 µM,4.3 µM,5.3 µM,Activity [25]: Non-Toxic; Activity [21]: Active; Activity [26]: Dose-dependent effect; IC50 ([4]; read-out: IC50): 30.9 µM; Activity [22]: Active; Activity [23]: Non-Toxic
O=C(/C=C/c1ccc(OCCCCN2CCCC2)cc1)c1c(O)cc(OCCCCN2CCCC2)cc1O,1.4,1.8 µM,0.93,8.19 µM,3.2 µM,5.71 µM,–
O=C1C[C@@H](c2ccc(O)cc2)Oc2cc(O)cc(O)c21,–,–,5.5,–,–,–,inhibition [14]: < 5%; inhibition [15]: < 5%; inhibition [16]: < 5%; inhibition [17]: < 5%
O=c1c(-c2ccc(OCCCCN3CCC(Cc4ccccc4)CC3)cc2)coc2cc(OCCCCN3CCC(Cc4ccccc4)CC3)cc(O)c12,4.4,11.9 µM,1.2,31.8 µM,7.3 µM,7.2 µM,–
O=c1cc(-c2ccc(OCCCCN3CCN(Cc4ccccc4)CC3)cc2)oc2cc(OCCCCN3CCN(Cc4ccccc4)CC3)cc(O)c12,1.4,10.7 µM,1.8,37.5 µM,1 µM,26.8 µM,–
O=c1cc(-c2ccc(OCCCCN3CCC(Cc4ccccc4)CC3)cc2)oc2cc(OCCCCN3CCC(Cc4ccccc4)CC3)cc(O)c12,1.8,12.9 µM,1.1,19.7 µM,0.67 µM,10.8 µM,–
O=c1c(-c2ccc(OCCCCN3CCCCC3)cc2)coc2cc(OCCCCN3CCCCC3)cc(O)c12,4.2,19.6 µM,1.2,2.2 µM,0.81 µM,0.52 µM,Activity [25]: Non-Toxic; Activity [21]: Active; Activity [26]: Dose-dependent effect; IC50 ([4]; read-out: IC50): 19.6 µM; Activity [22]: Active; Activity [23]: Non-Toxic
O=c1c(-c2ccc(OCCCCN3CCN(Cc4ccccc4)CC3)cc2)coc2cc(OCCCCN3CCN(Cc4ccccc4)CC3)cc(O)c12,–,26.4 µM,1.8,–,25.1 µM,19.8 µM,inhibition [11]: 5.8%
